Reference: US20210230313A1, “SULFUR-CONTAINING GLYCANS AND POLYSACCHARIDES AND METHODS OF CHEMOENZYMATIC SYNTHESIS THEREOF” (priority 2018, published 2021)

Assays:
[1] = biological target: T1, bacterial heparin lyase III (Pedobacter heparinus, UniProt Q59289); assay: Heparin lyase III challenge of HEP polymers, PAGE analysis; format: biochemical; conditions: 50 mM ammonium acetate, pH 7.0, 20 h at 30° C., loss of signal on PAGE (FIG. 8)
T1 sequence (Q59289 25-659): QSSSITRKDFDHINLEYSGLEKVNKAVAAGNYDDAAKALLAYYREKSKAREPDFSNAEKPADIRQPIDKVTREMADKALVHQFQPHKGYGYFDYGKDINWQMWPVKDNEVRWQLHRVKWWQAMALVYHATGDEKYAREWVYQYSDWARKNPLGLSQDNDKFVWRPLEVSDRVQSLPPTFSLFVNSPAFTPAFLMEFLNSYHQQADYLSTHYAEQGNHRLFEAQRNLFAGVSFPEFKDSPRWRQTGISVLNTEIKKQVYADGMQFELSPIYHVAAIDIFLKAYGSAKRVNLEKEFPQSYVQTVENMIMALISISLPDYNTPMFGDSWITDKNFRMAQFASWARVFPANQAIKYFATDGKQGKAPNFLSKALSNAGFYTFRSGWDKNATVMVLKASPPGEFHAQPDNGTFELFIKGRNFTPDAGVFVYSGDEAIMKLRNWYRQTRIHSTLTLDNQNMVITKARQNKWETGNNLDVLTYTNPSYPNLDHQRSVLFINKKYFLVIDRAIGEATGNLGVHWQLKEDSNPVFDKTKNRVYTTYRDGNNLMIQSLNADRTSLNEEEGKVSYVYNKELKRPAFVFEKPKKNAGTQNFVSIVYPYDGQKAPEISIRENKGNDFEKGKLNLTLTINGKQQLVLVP
Description: Polymerization reactions and PAGE analysis. HEP trisaccharide (30 ng/ul) was incubated with 10 mM […] and either 10 mM 4-thio- or authentic UDP-GlcNAc, with PmHS-G (0.5 mg/ml), 1 mM MnCl2, and 50 mM Hepes, pH 7.2, for 20 h at 30° C. The reactions were then diluted in water and split into two aliquots, (i) a untreated control (−) and (ii) a heparin lyase III treated in 50 mM ammonium acetate, pH 7.0, for 20 h at 30° C. (+). The samples were then analyzed on a 6% 1×TBE PAGE (250 V, 15 min) and stained with 0.05% Alcian Blue followed by silver staining (BioRad Silver Stain kit).
Polymerization reactions producing longer HEP chains with either native (4-OH) or analog (4-SH) donors were analyzed for size on PAGE gels and stained. The gel depicts the polysaccharides made with both natural UDP-donors (native HEP) or by using the thio-GlcNAc analog and UDP-GlcA to form Hemi-A HEP.
Both polymers were challenged with bacterial heparin lyase III (+lanes). […] This finding is predicted as the enzyme digests the C—O—C glycosidic link that still exists in both types of HEP species.

PmHS-I = assay: Radiochemical incorporation assay, co-polymerization with UDP-[3H]GlcA, paper chromatography; format: biochemical, Pasteurella multocida; conditions: GAG synthase PmHS-I 1 mg/ml; test UDP-sugar 0.5 mM; UDP-[3H]GlcA 0.08 mM; 30° C., 5.5 hours
Description: (§1) For polymerization tests, for example, the various oligosaccharide acceptors were incubated with two types of UDP-sugars at 2 mM as noted under the same conditions as the single sugar extensions above. Radioactive UDP-sugars (e.g., UDP-[^3H]GlcA) were used to monitor co-polymerization reactions with the thiosugar-donors separated by various modes of chromatography. The general reaction catalyzed by a GAG synthase in these tests is:
(§2) n UDP-4S-HexNAc+n UDP-[^3H]GlcA+acceptor-->2n UDP+[4S-HexNAc+UDP-[^3H]GlcA]n-acceptor
(§3) where HexNAc is GlcNAc, GalNAc, or another sugar or sugar derivative. Reactions used radioactive UDP-GlcA (0.08 mM final; 0.1 microCi ^3H) and the authentic UDP-sugars (a positive control) or their thio-analogs (0.5 mM final) with a GAG synthase (1 mg/ml) in neutral pH buffer (50 mM Hepes, pH 7.2) with divalent cation (1 mM Mn^2+) at 30° C. for 5.5 hours (note: the HA [PmHAS] and chondroitin [PmCS] synthase reactions also employed the stabilizer 1M ethylene glycol). The reactions were quenched (2% SDS detergent), and analyzed by paper chromatography. The small radioactive UDP-sugar precursors are polymerized by the synthase, resulting in larger products (stay at the origin of the paper; any unused precursor migrates down the paper); such data is shown in Table 3.
(§4) Chimeric enzymes that included differing portions of both PmHS1 (GenBank Accession #AAL84702) and PmHS2 (GenBank Accession #AAQ55109) were created and tested for their ability to synthesize polymers from the sulfur-containing UDP-4-S-GlcNAc. As shown below in Table 2, the corresponding numbers describe the original residue numbers of the source parental synthase sequence as noted.
(§5) Overall, the Chimeric B construct (PmHS-B) appears to be the best catalyst tested thus far for incorporating 4-S-GlcNAc into a heparosan-like S-linked polymer.

PmHS-D = assay: as above; format: biochemical, Pasteurella multocida; conditions: GAG synthase PmHS-D 1 mg/ml; test UDP-sugar 0.5 mM; UDP-[3H]GlcA 0.08 mM; 30° C., 5.5 hours
Description: as §1, §2, §3, §4, §5

PmHS-J = assay: as above; format: biochemical, Pasteurella multocida; conditions: GAG synthase PmHS-J 1 mg/ml; test UDP-sugar 0.5 mM; UDP-[3H]GlcA 0.08 mM; 30° C., 5.5 hours; * = significant thio-sugar incorporation into polymer
Description: as §1, §2, §3, §4, §5

PmHS-G = assay: as above; format: biochemical, Pasteurella multocida; conditions: GAG synthase PmHS-G 1 mg/ml; test UDP-sugar 0.5 mM; UDP-[3H]GlcA 0.08 mM; 30° C., 5.5 hours; * = significant thio-sugar incorporation into polymer
Description: as §1, §2, §3, §4, §5

PmHS-B = assay: as above; format: biochemical, Pasteurella multocida; conditions: GAG synthase PmHS-B 1 mg/ml; test UDP-sugar 0.5 mM; UDP-[3H]GlcA 0.08 mM; 30° C., 5.5 hours; * = significant thio-sugar incorporation into polymer
Description: as §1, §2, §3, §4, §5

PmHS-A = assay: as above; format: biochemical, Pasteurella multocida; conditions: GAG synthase PmHS-A 1 mg/ml; test UDP-sugar 0.5 mM; UDP-[3H]GlcA 0.08 mM; 30° C., 5.5 hours
Description: as §1, §2, §3, §4, §5

Compound | Susceptibility to digestion by bacterial heparin lyase [1] | 3H radioactivity at the origin (dpm) (PmHS-I) | 3H radioactivity at the origin (dpm) (PmHS-D) | 3H radioactivity at the origin (dpm) (PmHS-J) | 3H radioactivity at the origin (dpm) (PmHS-G) | 3H radioactivity at the origin (dpm) (PmHS-B) | 3H radioactivity at the origin (dpm) (PmHS-A)
(-4-GlcA-1-beta-S-4-GlcNAc-1-alpha-O)n [Hemi-A HEP] | sensitive to digestion | – | – | – | – | – | –
CC(=O)N[C@H]1[C@@H](OP(=O)(O)OP(=O)(O)OC[C@H]2O[C@@H](n3ccc(=O)[nH]c3=O)[C@H](O)[C@@H]2O)O[C@H](CO)[C@@H](S)[C@@H]1O [UDP-4S-GlcNAc, UDP-4-SH-GlcNAc] | – | 42 dpm | 42 dpm | 480 * dpm | 510 * dpm | 800 * dpm | –
CC(=O)N[C@H]1[C@@H](OP(=O)(O)OP(=O)(O)OC[C@H]2O[C@@H](n3ccc(=O)[nH]c3=O)[C@H](O)[C@@H]2O)O[C@H](CO)[C@@H](O)[C@@H]1O [UDP-GlcNAc, UDP-N-acetylglucosamine] | – | 3,900 dpm | 4,140 dpm | 12,200 dpm | 8,900 dpm | 9,020 dpm | 9,230 dpm
